We go through two compounds from patent publication US20060128653A1, “Pharmaceutical formulation of decitabine” (priority 2004, published 2006).

In brackets after ≈: the same amount, converted by molar mass. Read-outs that look alike come from different tables or passages of the source.

Data set [1] can be described thus: Solubility in 40% w/w cyclodextrin solutions versus potassium phosphate buffer. The class given is physicochemical. Conditions: thermodynamic from solid, room temperature (20-25° C.). The procedure:
Aqueous solutions of cyclodextrin at pH 6.7-7.2 were prepared by dissolving 4 parts of cyclodextrins (hydroxypropyl α-cyclodextrin (HPACD), hydroxypropyl β-cyclodextrin (HPBCD), β-cyclodextrin (BCD), hydroxypropyl γ-cyclodextrin (HPGCD), or CAPTISOL) in 6 parts of potassium phosphate buffer (50 mM KH2PO4, pH 7.0), resulting solutions of 40% w/w cyclodextrins.
Aqueous solutions of cyclodextrin at pH 6.7-7.2 were prepared by dissolving 4 parts of cyclodextrins (hydroxypropyl α-cyclodextrin (HPACD), hydroxypropyl β-cyclodextrin (HPBCD), hydroxypropyl γ-cyclodextrin (HPGCD), or CAPTISOL) in 6 parts of potassium phosphate buffer (50 mM KH2PO4, pH 7.0), resulting solutions of 40% w/w cyclodextrins.

A short description of data set [2]: UV spectroscopy of decitabine-HPBCD complex formation. The following applies: absorbance at 262 nm, room temperature, 1:1 stoichiometry assumed, least-squares fit. The class given is physicochemical.
The conditions of data set [3]: cited from earlier work.
A short description of data set [4]: Chemical stability of decitabine in cyclodextrin solutions (HPLC potency). Conditions: 2-8° C. and 25° C., percentage of total peak areas at 220 nm, FIGS. 1 and 2. The class given is physicochemical. The procedure:
The chemical stability of decitabine in the cyclodextrin solutions and in the phophate buffer as prepared above was determined. The initial decitabine concentration for all the solutions was 17-18 mg/mL at the beginning of the experiment at 2-8° C.; 9-10 mg/mL at the beginning of the experiment at 25° C. Decitabine potency was assayed by a HPLC method, and expressed as a percentage of total peak areas at 220 nm.

Setting [5] is: 40% w/w Captisol aqueous solution, aqueous with cosolvent or surfactant or cyclodextrin, 40% Captisol (w/w, pH 6.7).
The mark [6] stands for this setting: 40% w/w HPACD aqueous solution, aqueous with cosolvent or surfactant or cyclodextrin, 40% HPACD (w/w, pH 7.0).
[7] abbreviates: 40% w/w HPBCD aqueous solution, aqueous with cosolvent or surfactant or cyclodextrin, 40% HPBCD (w/w, pH 7.2).
The mark [8] stands for this setting: potassium phosphate buffer, aqueous buffer, KPi (50 mM KH2PO4, pH 7.0).

The solubility is the dissolved amount per volume that the medium holds. Lower therefore signals a poorly soluble substance. Take `Nc1ncn([C@@H]2O[C@H](CO)[C@@H](O)[C@H]2O)c(=O)n1` [5-azacytidine]: the solubility in data set [1] (setting [5]) is 26 mg/mL (≈ 106 mM); in data set [1] (setting [6]), 20 mg/mL (≈ 81.9 mM); in data set [1] (setting [7]), 26 mg/mL (≈ 106 mM); in data set [1] (40% w/w HPGCD aqueous solution, aqueous with cosolvent or surfactant or cyclodextrin, 40% HPGCD (w/w, pH 7.0)), 22 mg/mL (≈ 90.1 mM); in data set [1] (setting [8]), 19 mg/mL (≈ 77.8 mM).
Regarding `Nc1ncn([C@H]2C[C@H](O)[C@@H](CO)O2)c(=O)n1` [decitabine, 5-aza-2′-deoxycytidine], the “Complex formation constant Kf for decitabine-HPBCD complex” value in data set [2] turned out to be 23 M⁻¹. Besides, the “Steady-state plasma concentration (estimated)” value is 0.31 to 0.39 µg/mL in data set [3] (6-hour infusion of 100 mg/m^2) and 0.2 to 0.5 µg/mL in data set [3] (infusion rate of 1 mg/kg/h). In addition, in data set [3] (600-mg/m^2 infusion), the “Range of plasma concentrations” value was 0.41 to 16 µg/mL. The Terminal half-life in data set [3] (humans, measured by bioassay) was 10 to 35 min. Besides, in data set [3] (humans), the “Half-life after discontinuing the infusion” value was 12 to 20 min. Besides, in data set [3] (humans), the “Total urinary excretion, % of the administered dose” value is listed as “less than 1%”. The Volume of distribution result in data set [3] (humans) is reported as “about 4.6 L/kg”. The Plasma concentration is 430 to 760 ng/mL in data set [3] (infusion times of 40-60 hours, infusion rate 1 mg/kg/h) and “about 0.4 μg/ml” in data set [3] (patients, 100 mg/m^2 as a 3-hour infusion). For the same compound, the “Penetration into the cerebrospinal fluid, % of the plasma concentration” value in data set [3] (man, end of a 36-hour intravenous infusion) is 14-21%. The solubility was 42 mg/mL (≈ 184 mM) in data set [1] (setting [5]), 18 mg/mL (≈ 78.9 mM) in data set [1] (setting [6]), 44 mg/mL (≈ 193 mM) in data set [1] (setting [7]) and 18 mg/mL (≈ 78.9 mM) in data set [1] (setting [8]). The “Stability of decitabine in aqueous solution with cyclodextrins as excipients” value in data set [4] is reported as “dramatically improve the stability”.
